Results taken from US11596629B2, “Compounds and methods for treating cancer” (Mayo Foundation for Medical Education and Research, priority 2017, dated 2023).
Entries after “also recorded” stand apart in the source; their conditions may differ.

Tests used:
TUBO tumors [1] = experiment: TUBO HER2-positive tumors, SSI-4, PD-1 blockade and combination, CD8 depletion; settings: SSI-4 monotherapy
Method: Materials and methods: The checkpoint inhibitor used was a mouse anti-PD-1 that was purchased from BioXCell (catalog #BE0146). The checkpoint inhibitor was administered at 100 μg/dose (5 mg/kg) by intraperitoneal (IP) injection.
(§3) To negate the effects of PD-L1 upregulation, the combination of PD-1 antibody-mediated blockade, the receptor for PD-L1, and SSI-4, was tested.

E0771-E2 cells [2] = experiment: Antigen presentation of cOva by MHC class I on BMDM co-cultured with cOva-expressing tumor cells; format: cell-based, murine
Method: (§1) CRT behaves as a pro-phagocytic signal. The effect of SSI-4 treatment on tumor cell phagocytosis by bone marrow-derived macrophages (BMDM) in vitro was determined. SSI-4 (1000 nM) induced the highest level of phagocytosis in both TUBO and E0771-E2 cells (5 and 13%, respectively) (FIG. 2a). […] Downstream activation of T lymphocytes is dependent on the successful maturation and presentation of antigen by antigen-presenting cells such as macrophages (Woo 2015). SSI-4 driven activation of BMDMs in vitro was evaluated by measuring antigen presentation of chicken ovalbumin (cOva) by MHC class I receptors on BMDM after co-culturing them with cOva-expressing tumor cells. […] CD8+ T lymphocyte activation was evaluated in vitro using splenic T cells derived from OT-I transgenic mice which recognize ovalbumin residues 257-264 in the context of H2Kb. Proliferation and interferon gamma (IFNγ) production was measured in T lymphocytes co-cultured with both cOva-expressing tumor cells and BMDM treated with SSI-4. In addition, in order to evaluate whether the effects of SSI-4 on T lymphocyte activation were direct or mediated through a tumor-specific mechanism, concurrent analysis in SSI-4 treated T lymphocytes alone and T lymphocytes co-cultured with BMDM only was performed.

TUBO cells [3] = experiment: as above; format: cell-based, murine
Method: as §1

[4] = tested on: 4T1 TNBC breast cancer cells; experiment: Tumor cell phagocytosis in vitro; format: cell-based; settings: 4T1 cells
TUBO tumors [5] = experiment: TUBO orthotopic mammary fat pad tumors, SSI-4 monotherapy; format: in vivo, BALB/c mice
Method: SSI-4 mediated immunomodulation in vivo was evaluated. TUBO cells were injected orthotopically into the mammary fat pad of BALB/c mice. Animals received either sham or SSI-4 (180 mg/kg) orally (continuous) when tumor burden reached 50-100 mm^3. […] Tumor tissue was harvested 14 days after treatment onset for analysis.
As SSI-4 treatment of tumor cells enhances the antigen presenting capabilities of APCs in vitro, tumor-associated recruitment of professional phagocytes in vivo including macrophages (MP) and dendritic cells (DC) was evaluated. The ratio of tumor leukocyte recruitment by comparing the ratio of cluster of differentiation 45 antigen (CD45) positive to negative cells sorted from dissociated tumor tissue within control and SSI-4 treated mice was determined. Results indicated a 10% increase in the number of tumor-associated leukocytes within SSI-4 treated animals (FIG. 3f). Next, tumor sections were stained for F4/80, a macrophage (MP) marker. […] To determine intra-tumor dendritic cell infiltration, tumors were dissociated and analyzed via flow cytometry for DCs based on CD45^+MHCII^+CD11c^hi expression. […] As tumor-associated macrophage (TAM) cells can be correlated with either a tumor-suppressive or pro-inflammatory phenotype, we sorted this population identified by MHCII^+CD11c^loF4/80^+ based on the polarization markers interleukin-1β (IL-1β) and IL-10, comparing the expression profiles from both treatment groups as well as mammary tissue extracted from non-tumor bearing mice.
SSI-4 mediated APC activation could augment T lymphocyte infiltration and activation. […] The maturation status of T lymphocytes from CD3+ cells isolated from the spleen of treated animals by comparing the ratio of CD44 to CD62L expression in either CD4 or CD8 T-cells was examined. […] The activation status of T lymphocytes isolated from digested tumors was also assessed. […] Granzyme B-positive CD8 T-cells were also enriched in SSI-4 treated tumors (FIG. 4f), another marker for activated CD8+ T lymphocytes.

E0771-E2 tumors = experiment: E0771-E2 tumor bearing mice, SSI-4, PD-1 blockade and combination
Method: The checkpoint inhibitor was administered at 100 μg/dose (5 mg/kg) by intraperitoneal (IP) injection.
as §3
Tumor-infiltrating (TI) leukocytes and lymphocytes were assessed by multicolor flow cytometry on dissociated treated tumor tissue extracted from E0771-E2 bearing mice on day 27 of the study. […] 5G: To determine whether anti-tumor activity of SSI-4/PD-1 combination therapy is dependent on cytotoxic CD8 T lymphocyte activity, CD8 depletion studies were performed in mice receiving either placebo or combination therapy.

[6] = tested on: live tumor cells (HER2-positive and TNBC breast cancer); experiment: Plasma membrane translocation of calreticulin, flow cytometry on live tumor cells; format: cell-based, murine; settings: 48 hour treatment
Method: Significance shown for 1000 nM dose (anova).
(§2) SSI-4 induces ER stress in tumor cells. […] ER stress can provoke a therapeutically relevant adaptive immune response against malignant cells through the emission of immunostimulatory signals, or damage-associated molecular patterns (DAMPs) such as heat shock proteins and translocation of calreticulin (CRT) to the plasma membrane (17). In particular, phosphorylation of eIF2a has been reported to mediate CRT translocation (20) which is correlated with the induction of immunogenic cell death (ICD) and favorable disease outcome in a variety of malignancies (17).

E0771-E2 cells [7] = experiment: Tumor cell phagocytosis by bone marrow-derived macrophages (BMDM) in vitro; format: cell-based, murine
Method: as §1

TUBO cells [8] = experiment: as above; format: cell-based, murine
Method: as §1

[9] = tested on: TUBO, E0771-E2, and N202 tumor cells; experiment: ER stress activation in tumor cells (p-eIF2α Ser51, CHOP levels); format: cell-based, murine; settings: SSI-4 10-1000 nM
Source text: as §2

OT-II CD4 T cells = experiment: OT-II CD4 T cell proliferation in co-culture; format: cell-based; settings: for OT-II CD4 T cell proliferation: SSI-4 1000 nM
OT-I CD8 T cells = experiment: CD8+ T lymphocyte activation in vitro (proliferation, IFNγ) in co-culture with cOva-expressing tumor cells and BMDM; format: cell-based, mice; settings: for interferon gamma (IFNγ) production in OT-I CD8 T cells / OT-I CD8 T cell proliferation: SSI-4 1000 nM
Method: as §1

[10] = tested on: E0771 TNBC breast cancer cells; experiment: Tumor cell phagocytosis in vitro; format: cell-based
Method: as §1

[11] = splenic CD3+ cells, CD44 to CD62L
[12] = tumor tissue 14 days after treatment onset
[13] = SSI-4 treated T lymphocytes alone or T lymphocyte-BMDM co-cultures

## CNC(=O)c1ccnc(NC(=O)N2CCC(Oc3ccccc3Cl)CC2)c1 [SSI-4, 2-{[4-(2-Chlorophenoxy)piperidine-1-carbonyl]amino}-N-methylpyridine-4-carboxamide]
TUBO tumors [1]
  improved median survival compared to PD-1 monotherapy: ~35%
  improved median survival compared to sham: approximately 37%
E0771-E2 cells [2]
  SSI-4 enhanced antigen presentation with adjuvant CRT neutralization: inhibited
E0771-E2 cells [2]; SSI-4 100 nM
  antigen presentation: 5%
E0771-E2 cells [2]; SSI-4 1000 nM
  antigen presentation: 5%
TUBO cells [3]
  SSI-4 enhanced antigen presentation with adjuvant CRT neutralization: inhibited
TUBO cells [3]; SSI-4 100 nM
  antigen presentation: 8.5%
TUBO cells [3]; SSI-4 1000 nM
  antigen presentation: 8.5%
[4]
  SSI-4 induced phagocytosis with adjuvant CRT neutralization: reversed
[4]; SSI-4 1000 nM
  level of phagocytosis: 12.5%
TUBO tumors [5]; IHC of tumor sections
  number of CD4+ tumor-infiltrating populations: significant increase
  number of CD8+ tumor-infiltrating populations: significant increase
TUBO tumors [5]; IHC of tumor sections, TUBO tumor bearing mice
  programmed death ligand-1 (PD-L1) expression in tumor: induces
TUBO tumors [5]; MHCII+CD11cloF4/80+ cells
  pro-inflammatory cytokine (IL-1β) expression in tumor-associated macrophages: increased expression of pro-inflammatory cytokines; also recorded: significant increase in IL-1β
TUBO tumors [5]; SSI-4 180 mg/kg orally (continuous) vs sham
  overall survival: appreciable increase in overall survival
TUBO tumors [5]; SSI-4 180 mg/kg orally (continuous) vs sham, 180 mg/kg
  tumor progression: slower tumor progression; also recorded: tumor progression invariably occurred
TUBO tumors [5]; SSI-4 180 mg/kg orally (continuous), when control animals reached endpoint
  tumor sizes at 30 days after onset of therapy: markedly smaller tumor sizes
TUBO tumors [5]; T lymphocytes from digested tumors
  effector CD4 and CD8 T lymphocytes identified by IFNγ: markedly increased
TUBO tumors [5]; dissociated tumor tissue, SSI-4 vs control
  increase in the number of tumor-associated leukocytes (CD45): 10%
TUBO tumors [5]; flow cytometry CD45+MHCII+CD11chi, vs control treated tumors and normal mammary tissue
  number of intra-tumor dendritic cells: significant increase
TUBO tumors [5]; mouse, in vivo
  perforin in tumors: significant increase in perforin
TUBO tumors [5]; spleen
  naïve T-cell numbers: concomitant decrease
TUBO tumors [5]; [11]
  memory and effector T-cells among CD4 positive T cell populations: robust induction
  memory and effector T-cells among CD8 positive T cell populations: robust induction
TUBO tumors [5]; tumor sections
  intra-tumor penetration of macrophages (F4/80): increased intra-tumor penetration
  macrophages, positive F4/80 IHC staining: 43.3±8.6 % pop.
TUBO tumors [5]; tumor sections, sham 47.7±6.4
  Ki-67 protein staining: 36.7±6.2 %+nuclei
TUBO tumors [5]; tumor sections, sham H=4.9±2.6
  cleaved caspase 3 (CC3) staining, H: 10.7±3.9
TUBO tumors [5]; [12]
  cleaved caspase 3 (CC3) staining: significant increase
  proliferative capacity of tumors via nuclear Ki67 staining: significant reduction in the proliferative capacity
TUBO tumors [5]; tumors
  Granzyme B-positive CD8 T-cells: enriched
  number of intra-tumor T regulatory cells (dual CD25 and FoxP3 expression): significantly reduced; also recorded: profound decrease
E0771-E2 tumors; EO771-E2 tumor bearing mice
  programmed death ligand-1 (PD-L1) expression in tumor: induces
E0771-E2 tumors; FIG. 25
  protein expression of PD-L1 in tumor-infiltrating dendritic and macrophage cells: significant changes
E0771-E2 tumors; SSI-4 monotherapy
  improved median survival compared to PD-1 monotherapy: ~20%
  improved median survival compared to sham: approximately 22%
E0771-E2 tumors; dissociated tumors
  effector/cytotoxic CD8+ T lymphocytes in tumor: increased; also recorded: significant increase
E0771-E2 tumors; flow cytometry, day 27
  increase of intratumor infiltration of macrophages: approximately 8%
E0771-E2 tumors; intratumor dendritic cells
  protein expression of checkpoints PD-L1 or PD-L2 in dendritic cells: No significant changes
E0771-E2 tumors; intratumor macrophages
  PD-L1 expression on macrophages: increased PD-L1; also recorded: strongly induce PD-L1 expression on macrophages
E0771-E2 tumors; mouse, in vivo
  intratumor population of T regulatory cells: deleterious effect
  tumor infiltrating macrophages: increased the number of tumor infiltrating macrophages; also recorded: significant influx
E0771-E2 tumors; tumor-infiltrating T lymphocytes
  checkpoint protein expression (CTLA-4, TIM3) on CD4 and CD8 positive T lymphocytes: upregulation of both CTLA-4 and TIM-3
[6]; 10 nM, flow cytometry on live tumor cells
  plasma membrane translocation/expression of calreticulin (CRT): induces plasma membrane translocation of calreticulin; also recorded: potently upregulates plasma membrane expression of CRT
[6]; 10-1000 nM, HER2-positive and TNBC breast cancer cells, significance shown for 1000 nM
  plasma membrane translocation of calreticulin: induces plasma membrane translocation of calreticulin
E0771-E2 cells [7]; CRT blocking antibody
  SSI-4 induced phagocytosis with adjuvant CRT neutralization: reversed; also recorded: significantly abrogate
E0771-E2 cells [7]; SSI-4 1000 nM
  level of phagocytosis: 13%
TUBO cells [8]; CRT blocking antibody
  SSI-4 induced phagocytosis with adjuvant CRT neutralization: reversed; also recorded: significantly abrogate
TUBO cells [8]; SSI-4 1000 nM
  level of phagocytosis: 5%
[9]
  activation of ER stress (phosphorylated eIF2α at serine51 and CHOP levels): activation of ER stress
OT-II CD4 T cells; E0771-E2
  SSI-4 enhanced OT-II CD4 T cell proliferation with adjuvant CRT neutralization: inhibited
  OT-II CD4 T cell proliferation: significantly enhanced
OT-II CD4 T cells; MMTV-neu
  SSI-4 enhanced OT-II CD4 T cell proliferation with adjuvant CRT neutralization: inhibited
  OT-II CD4 T cell proliferation: significantly enhanced
OT-I CD8 T cells; E0771-E2 cells
  SSI-4 enhanced IFNγ production with CRT neutralization: mild (n.s.) decrease
  SSI-4 enhanced OT-I CD8 T cell proliferation with adjuvant CRT neutralization: inhibited
OT-I CD8 T cells; MMTV-neu cells
  SSI-4 enhanced IFNγ production with adjuvant CRT neutralization: inhibited; also recorded: abrogate
  SSI-4 enhanced OT-I CD8 T cell proliferation with adjuvant CRT neutralization: inhibited; also recorded: abrogate
OT-I CD8 T cells; triple culture with E0771-E2
  interferon gamma (IFNγ) production in OT-I CD8 T cells: significantly enhanced; also recorded: potently induce
OT-I CD8 T cells; triple culture with E0771-E2 tumor cells and macrophages
  OT-I CD8 T cell proliferation: significantly enhanced; also recorded: potently induce
OT-I CD8 T cells; triple culture with MMTV-neu
  interferon gamma (IFNγ) production in OT-I CD8 T cells: significantly enhanced; also recorded: potently induce
OT-I CD8 T cells; triple culture with MMTV-neu tumor cells and macrophages
  OT-I CD8 T cell proliferation: significantly enhanced; also recorded: potently induce
OT-I CD8 T cells; [13]
  IFNγ production without tumor cells: No significant changes
  T lymphocyte proliferation without tumor cells: could not induce T cell proliferation; also recorded: No significant changes
OT-I CD8 T cells; SSI-4 treatment
  T cell proliferation with tumor cells bearing empty vector (EV), no cOVA antigen: could not similarly stimulate T cell proliferation
[10]
  SSI-4 induced phagocytosis with adjuvant CRT neutralization: reversed
[10]; SSI-4 1000 nM
  level of phagocytosis: 9.4%
